Measured values: PMC9472360, “Adagrasib, a KRAS G12C inhibitor, reverses the multidrug resistance mediated by ABCB1 in vitro and in vivo” (Cell Communication and Signaling : CCS, 2022)

Biological target: T1, ABCB1 (P-glycoprotein/P-gp/MDR1) (Homo sapiens, UniProt P08183)
T1 construct: full-length ABCB1 overexpressed in High Five insect cells; crude membranes
Test: vanadate-sensitive ATPase assay, inorganic phosphate release, ABCB1 membranes
Type: biochemical
Settings: High Five membranes 100 µg/mL, 12 mM Mg-ATP, 37 °C, 0.01-5 µM

T1 sequence (P08183 whole entry): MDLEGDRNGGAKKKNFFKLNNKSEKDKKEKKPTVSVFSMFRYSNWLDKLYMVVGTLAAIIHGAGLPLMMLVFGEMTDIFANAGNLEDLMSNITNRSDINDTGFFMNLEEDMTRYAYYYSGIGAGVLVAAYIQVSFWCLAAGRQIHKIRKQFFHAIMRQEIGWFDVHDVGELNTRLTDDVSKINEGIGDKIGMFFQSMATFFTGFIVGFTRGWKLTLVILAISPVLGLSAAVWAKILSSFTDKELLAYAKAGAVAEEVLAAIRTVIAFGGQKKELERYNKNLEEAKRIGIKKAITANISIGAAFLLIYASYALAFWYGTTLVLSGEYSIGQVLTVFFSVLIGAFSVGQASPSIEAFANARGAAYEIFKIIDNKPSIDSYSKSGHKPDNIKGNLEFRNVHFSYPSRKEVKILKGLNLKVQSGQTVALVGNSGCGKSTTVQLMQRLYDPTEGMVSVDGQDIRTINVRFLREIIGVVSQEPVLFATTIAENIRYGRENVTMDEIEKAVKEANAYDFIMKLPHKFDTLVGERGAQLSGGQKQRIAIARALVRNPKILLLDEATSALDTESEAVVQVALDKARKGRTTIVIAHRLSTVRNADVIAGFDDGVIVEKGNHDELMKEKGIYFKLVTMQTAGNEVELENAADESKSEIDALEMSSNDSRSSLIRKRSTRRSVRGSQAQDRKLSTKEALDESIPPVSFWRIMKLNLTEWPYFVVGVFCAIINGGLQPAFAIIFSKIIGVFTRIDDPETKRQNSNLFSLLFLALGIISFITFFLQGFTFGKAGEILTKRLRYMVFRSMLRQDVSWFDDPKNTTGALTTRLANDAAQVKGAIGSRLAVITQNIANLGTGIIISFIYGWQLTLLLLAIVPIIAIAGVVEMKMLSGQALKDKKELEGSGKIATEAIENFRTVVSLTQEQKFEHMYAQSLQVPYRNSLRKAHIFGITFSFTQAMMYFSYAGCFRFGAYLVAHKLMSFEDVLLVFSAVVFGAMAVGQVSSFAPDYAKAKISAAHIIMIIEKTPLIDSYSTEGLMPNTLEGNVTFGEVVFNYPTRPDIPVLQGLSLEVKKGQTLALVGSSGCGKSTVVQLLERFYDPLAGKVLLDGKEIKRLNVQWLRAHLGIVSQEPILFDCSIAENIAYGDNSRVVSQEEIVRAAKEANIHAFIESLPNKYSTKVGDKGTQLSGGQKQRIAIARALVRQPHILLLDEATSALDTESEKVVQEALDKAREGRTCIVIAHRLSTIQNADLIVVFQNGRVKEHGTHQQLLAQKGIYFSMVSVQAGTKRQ

SMILES: C=C(F)C(=O)N1CCN(c2nc(OC[C@@H]3CCCN3C)nc3c2CCN(c2cccc4cccc(Cl)c24)C3)C[C@@H]1CC#N [MRTX849]
- ATPase stimulation: MRTX849- stimulated activity of ABCB1 ATPase was dose-dependent
